Test results from patent US8871812B2, “Therapeutic regimen comprising PEG-interferon, ribavirin and VX-950 for the treatment of hepatitis” (priority 2008, dated 2014).

Experiments:
HCV genotype 1 [1] = assay: 14-day multiple-dose study in HCV genotype 1 subjects: HCV RNA (study VX04-950-101); format: in vivo, human
Protocol: Accordingly, applicants determined the changes in serum neopterin concentration as a marker of monocyte/macrophage activity during administration of an inhibitor of (HCV) NS3·4A protease. As described herein, VX-950 was administered for 14 days in a randomized, double blind, placebo controlled, multiple-dose study in 34 patients infected with HCV genotype 1. Patients received VX-950 450 mg q8h (n=10), 750 mg q8h (n=8), 1250 mg q12h (n=10), or placebo (n=6). Serum neopterin concentrations were measured by a quantitative competitive ELISA (ELItest® Neopterin, Brahms, Hennigsdorf, Germany) at pretreatment, at day 7 and 14, and at day 10 of follow-up. The lower limit of detection (LLD) was 2 nmol/I. HCV RNA was assessed at frequent intervals during the study by real-time PCR (COBAS TAQMAN™ HCV Test; linear dynamic range of 3.0 ×10^1 to 2.0 ×10^8 HCV RNA IU/ml; LLD of 10 HCV RNA IU/ml; Roche Diagnostics, Branchburg, N.J.).
All other 34 subjects completed the study.
The HCV positive subjects were tested post-treatment to monitor HCV RNA levels' return to baseline.

WT HCVpro = assay: IFN dependent gene expression / IFNβ promoter activity in Sendai virus infected Huh7 cells; format: cell-based
Text: IFNβ promoter activity decreases in response to Sendai virus stimulation in the presence of WT HCVpro.

HCV genotype 1 [2] = assay: C208 Phase 2 study of telaprevir q8h or q12h with peginterferon alfa-2a or alfa-2b and ribavirin: HCV RNA; format: in vivo, human; conditions: for RVR (subjects with undetectable HCV RNA, <10 IU/mL, at week 4): listed as TVR
Protocol: Background: Study 0208 is an ongoing open-label, randomized Phase 2 study of telaprevir (TVR) administered q8h or q12h in combination with peginterferon-alfa-2a (peginterferon-alfa-2a) or peginterferon-alfa-2b and ribavirin (T/PR) in treatment-naïve subjects with HCV genotype 1 infection. We report the results of an interim analysis conducted at week 12 of treatment.
Subjects in all arms received T/PR treatment for 12 weeks, and will subsequently receive either 12 or 36 additional weeks of PR based on rapid virologic response (RVR) criterion. Subjects who met the definition of viral breakthrough (≧1-log increase in HCV RNA above nadir) discontinued TVR dosing and will complete 48 weeks of PR. An intent-to-treat analysis was performed when all treated subjects had completed week 4 of treatment or had discontinued earlier than week 4. The analysis also assessed all treatment or TVR dosing discontinuations including subjects who discontinued beyond week 4, up to the time of data cutoff. The proportion of subjects with HCV RNA below the limit of detection (TaqMan assay LOD 10 IU/mL) at week 4 (RVR) is reported.
C208 is an ongoing, open-label, randomized, multicenter, Phase 2 exploratory study. Adult, treatment-naïve subjects with chronic HCV genotype 1 infection were enrolled, including subjects with bridging fibrosis. Inclusion criteria were consistent with those used in prior HCV studies. Subjects received 12 weeks of T/PR, followed by either 12 or 36 additional weeks of PR based on extended rapid virologic response (RVR) criterion (FIG. 1). Subjects with HCV RNA>1000 IU/mL at Week 4, 6 or 8 were required to discontinue TVR dosing and complete 48 weeks of PR.
An interim intent-to-treat (ITT) analysis was performed and is presented in this report, which includes data obtained for all subjects randomized had completed week 12 of treatment or had discontinued earlier. The primary efficacy endpoint was the proportion of subjects with HCV RNA below the limit of detection (LOD, 10 IU/mL) at different timepoints throughout the first 12 weeks of dosing. HCV RNA levels were measured using the TAQMAN™ HCV RNA assay v2.0 (Roche Molecular Systems Inc., Branchburg, N.J., U.S.A.).
(§1) Assessment of virologic breakthrough (defined as a >1-log 10 increase in HCV RNA from nadir, or HCV RNA>100 IU/mL in subjects whose HCV RNA had previously become undetectable [<10 IU/mL] at all assessment timepoints) was performed. Pharmacokinetics and viral dynamics were assessed by pre-defined serial measurements of plasma concentrations of TVR and HCV RNA, respectively, from baseline to Week 12. Pharmacokinetic analysis of TVR was performed using non-compartmental methods for data from full pharmacokinetic profiles. A viral dynamics model, which included fixed effects for treatment and random effects for clearance, drug effect, drop and death rate in infected cells with unstructured variance covariance matrix, was also constructed. Safety and tolerability were assessed by monitoring adverse events (AEs), laboratory abnormalities and cardiovascular parameters.

[3] = C208 Phase 2 study: pharmacokinetics of TVR in plasma; format: in vivo, human; conditions: for Cmin, mean ± SD: Week 8
Protocol: as §1

HCV genotype 1 [4] = assay: Phase 2 studies PROVE1 and PROVE2: sustained virologic response; format: in vivo, human; conditions: treatment-naïve genotype 1 patients
[5] = test system: AST (aspartate aminotransferase); assay: AST level upon administration of VX-950; format: in vivo
Text: ALT is an enzyme that is present in liver cells; when liver cells are damaged or inflamed, ALT leaks from the cell into the blood. Blood ALT levels are useful as a marker of liver inflammation or damage.

[6] = human, in vivo
[7] = Week 4, range across the four treatment groups

Compound: CCC[C@H](NC(=O)[C@@H]1[C@H]2CCC[C@H]2CN1C(=O)[C@@H](NC(=O)[C@@H](NC(=O)c1cnccn1)C1CCCCC1)C(C)(C)C)C(=O)C(=O)NC1CC1 [VX-950]
- Subjects with maximum change from baseline in HCV RNA >−1 to <0 log10 IU/mL (HCV genotype 1 [1]; 450 mg q8h, 14 days (n = 10)): 0 n (%)
- Subjects with maximum change from baseline in HCV RNA >−2 to ≦−1 log10 IU/mL (HCV genotype 1 [1]; 450 mg q8h, 14 days (n = 10)): 0 n (%)
- Subjects with maximum change from baseline in HCV RNA >−3 to ≦−2 log10 IU/mL (HCV genotype 1 [1]; 450 mg q8h, 14 days (n = 10)): 1 (10.0) n (%)
- Subjects with maximum change from baseline in HCV RNA >−4 to ≦−3 log10 IU/mL (HCV genotype 1 [1]; 450 mg q8h, 14 days (n = 10)): 7 (70.0) n (%)
- Subjects with maximum change from baseline in HCV RNA >−5 to ≦−4 log10 IU/mL (HCV genotype 1 [1]; 450 mg q8h, 14 days (n = 10)): 0 n (%)
- Subjects with maximum change from baseline in HCV RNA ≧−5 log10 IU/mL (HCV genotype 1 [1]; 450 mg q8h, 14 days (n = 10)): 2 (20.0) n (%)
- Subjects with maximum change from baseline in HCV RNA >−1 to <0 log10 IU/mL (HCV genotype 1 [1]; 750 mg q8h, 14 days (n = 8)): 0 n (%)
- Subjects with maximum change from baseline in HCV RNA >−2 to ≦−1 log10 IU/mL (HCV genotype 1 [1]; 750 mg q8h, 14 days (n = 8)): 0 n (%)
- Subjects with maximum change from baseline in HCV RNA >−3 to ≦−2 log10 IU/mL (HCV genotype 1 [1]; 750 mg q8h, 14 days (n = 8)): 0 n (%)
- Subjects with maximum change from baseline in HCV RNA >−4 to ≦−3 log10 IU/mL (HCV genotype 1 [1]; 750 mg q8h, 14 days (n = 8)): 3 (37.5) n (%)
- Subjects with maximum change from baseline in HCV RNA >−5 to ≦−4 log10 IU/mL (HCV genotype 1 [1]; 750 mg q8h, 14 days (n = 8)): 3 (37.5) n (%)
- Subjects with maximum change from baseline in HCV RNA ≧−5 log10 IU/mL (HCV genotype 1 [1]; 750 mg q8h, 14 days (n = 8)): 2 (25.0) n (%)
- Subjects with maximum change from baseline in HCV RNA >−1 to <0 log10 IU/mL (HCV genotype 1 [1]; 1250 mg q12h, 14 days (n = 10)): 0 n (%)
- Subjects with maximum change from baseline in HCV RNA >−2 to ≦−1 log10 IU/mL (HCV genotype 1 [1]; 1250 mg q12h, 14 days (n = 10)): 0 n (%)
- Subjects with maximum change from baseline in HCV RNA >−3 to ≦−2 log10 IU/mL (HCV genotype 1 [1]; 1250 mg q12h, 14 days (n = 10)): 1 (10.0) n (%)
- Subjects with maximum change from baseline in HCV RNA >−4 to ≦−3 log10 IU/mL (HCV genotype 1 [1]; 1250 mg q12h, 14 days (n = 10)): 9 (90.0) n (%)
- Subjects with maximum change from baseline in HCV RNA >−5 to ≦−4 log10 IU/mL (HCV genotype 1 [1]; 1250 mg q12h, 14 days (n = 10)): 0 n (%)
- Subjects with maximum change from baseline in HCV RNA ≧−5 log10 IU/mL (HCV genotype 1 [1]; 1250 mg q12h, 14 days (n = 10)): 0 n (%)
- Subjects with a 3 log10 reduction in HCV-RNA (HCV genotype 1 [1]; within the first three days of treatment, of the 28 subjects receiving VX-950): 26
- IFN dependent gene expression (WT HCVpro; Sendai virus infected Huh7 cells): restores IFN dependent gene expression
- IFNβ promoter activation (WT HCVpro; Sendai virus stimulation in the presence of WT HCVpro): overcomes the WT HCVpro mediated suppression of IFNβ promoter activation
- subjects who achieved <10 IU/mL HCV RNA (HCV genotype 1 [2]; [7]): 67-83%
- subjects who achieved <25 IU/mL HCV RNA (HCV genotype 1 [2]; [7]): 87-96%
- subjects who achieved <10 IU/mL HCV RNA (HCV genotype 1 [2]; Week 12, range across the four treatment groups): 83-93%
- RVR (subjects with undetectable HCV RNA, <10 IU/mL, at week 4) (HCV genotype 1 [2]; arm A: TVR 750 mg q8h + Peg-IFN alfa-2a 180 μg/wk + ribavirin 1000-1200 mg/d (N 40)): 82%
- number of subjects with viral breakthrough up to week 4 (HCV genotype 1 [2]; arm A: TVR 750 mg q8h + Peg-IFN alfa-2a + RBV): 0
- RVR (subjects with undetectable HCV RNA, <10 IU/mL, at week 4) (HCV genotype 1 [2]; arm B: TVR 750 mg q8h + Peg-IFN alfa-2b 1.5 μg/kg/wk + ribavirin 800-1200 mg/d (N 42)): 71%
- number of subjects with viral breakthrough up to week 4 (HCV genotype 1 [2]; arm B: TVR 750 mg q8h + Peg-IFN alfa-2b + RBV): 2
- RVR (subjects with undetectable HCV RNA, <10 IU/mL, at week 4) (HCV genotype 1 [2]; arm C: TVR 1125 mg q12h + Peg-IFN alfa-2a 180 μg/wk + ribavirin 1000-1200 mg/d (N 40)): 85%
- number of subjects with viral breakthrough up to week 4 (HCV genotype 1 [2]; arm C: TVR 1125 mg q12h + Peg-IFN alfa-2a + RBV): 2
- RVR (subjects with undetectable HCV RNA, <10 IU/mL, at week 4) (HCV genotype 1 [2]; arm D: TVR 1125 mg q12h + Peg-IFN alfa-2b 1.5 μg/kg/wk + ribavirin 800-1200 mg/d (N 39)): 68%
- number of subjects with viral breakthrough up to week 4 (HCV genotype 1 [2]; arm D: TVR 1125 mg q12h + Peg-IFN alfa-2b + RBV): 1
- additional breakthroughs after discontinuation of TVR (HCV genotype 1 [2]; both in patients infected with genotype 1a): 2
- Patients with viral breakthrough while on TVR (HCV genotype 1 [2]; q8hr alfa-2a arm): 1
- Patients with viral breakthrough while on TVR (HCV genotype 1 [2]; q8hr alfa-2b arm): 3
- Patients with viral breakthrough while on TVR (HCV genotype 1 [2]; q12 hr alfa-2a arm): 2
- Patients with viral breakthrough while on TVR (HCV genotype 1 [2]; q12 hr alfa-2b arm): 3
- Cmin, mean ± SD ([3]; TVR 750 mg q8h + Peg-IFN alfa-2a + RBV (n = 40)): 2624 ± 507 ng/mL
- Cmin, mean ± SD ([3]; TVR 750 mg q8h + Peg-IFN alfa-2b + RBV (n = 42)): 2569 ± 453 ng/mL
- Cmin, mean ± SD ([3]; TVR 1125 mg q12h + Peg-IFN alfa-2a + RBV (n = 40)): 2134 ± 620 ng/mL
- Cmin, mean ± SD ([3]; TVR 1125 mg q12h + Peg-IFN alfa-2b + RBV (n = 39)): 2321 ± 384 ng/mL
- telaprevir Cmax ([3]; in vivo): higher
- telaprevir Cmin ([3]; on average, q12h versus q8h dosing schedules): lower
- sustained virologic response rate, PROVE2 (HCV genotype 1 [4]; 24-week TVR-containing regimen versus 48-week peginterferon and ribavirin (p=0.01)): 69%
- sustained virologic response rate, PROVE1 (HCV genotype 1 [4]; 24-week TVR-containing regimen versus 48-week peginterferon and ribavirin (p=0.02)): 61%
- AST levels [5]: decreased
- overall proportion of TVR discontinuations for any reason ([6]; 4 weeks): 12%
- Treatment discontinuations (all drugs), Any reason ([6]; 12 weeks): 24 (15) n (%)
- Treatment discontinuations (all drugs), Due to AEs ([6]; 12 weeks): 13 (8) n (%)
